# Data from US20230089014A1, “COMPOUND USED AS KINASE INHIBITOR AND USE THEREOF” (TYK MEDICINES (ZHENGZHOU), INC., priority 2020, published 2023).
# Key:
# Type in all cases: biochemical
# [1] = target: EGFR A763_Y764insFHEA (Homo sapiens, UniProt P00533, INS763FHEA); assay: Kinase activity assay (33P-ATP filter-binding) on EGFR exon 20 insertion mutant kinase A763_Y764insFHEA; conditions: for IC50: ATP at Km
# [2] = target: EGFR D770-N771insNPG (Homo sapiens, UniProt P00533, INS770NPG); assay: Kinase activity assay (33P-ATP filter-binding) on EGFR exon 20 insertion mutant kinase D770-N771insNPG; conditions: ATP at Km
# [3] = target: Her2 A775-G776insYVMA (Homo sapiens, UniProt P04626, INS775YVMA); assay: Kinase activity assay (33P-ATP filter-binding) on Her2 exon 20 insertion mutant kinase A775-G776insYVMA; conditions: for IC50: ATP at Km
# Sequence of Her2 A775-G776insYVMA (P04626 with tags, fused parts or gaps INS775YVMA limits assumed): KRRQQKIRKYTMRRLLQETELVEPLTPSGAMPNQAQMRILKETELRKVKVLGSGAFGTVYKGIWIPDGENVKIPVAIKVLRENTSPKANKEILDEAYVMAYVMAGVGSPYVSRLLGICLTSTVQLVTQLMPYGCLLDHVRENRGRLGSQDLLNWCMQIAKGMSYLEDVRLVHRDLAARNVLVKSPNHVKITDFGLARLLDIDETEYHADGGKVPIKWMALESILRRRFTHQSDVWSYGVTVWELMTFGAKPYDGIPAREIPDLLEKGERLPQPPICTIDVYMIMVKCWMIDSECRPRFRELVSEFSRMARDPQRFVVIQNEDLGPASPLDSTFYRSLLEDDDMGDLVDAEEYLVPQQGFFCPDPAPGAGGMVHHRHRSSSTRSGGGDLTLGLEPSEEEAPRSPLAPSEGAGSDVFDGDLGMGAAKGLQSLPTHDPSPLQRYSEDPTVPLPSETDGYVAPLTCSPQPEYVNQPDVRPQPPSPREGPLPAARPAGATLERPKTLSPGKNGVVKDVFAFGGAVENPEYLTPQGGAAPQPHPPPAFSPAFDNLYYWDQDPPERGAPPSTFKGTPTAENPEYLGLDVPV
SMILES,IC50 ([1]; class symbols) [nM],IC50 ([2]; class symbols) [nM],IC50 [1] [nM],inhibitory activity on Her2 insertion mutant kinase relative to that of poziotinib [3],IC50 [3] [nM],IC50 ([3]; class symbols) [nM],IC50 [2] [nM],"activity relative to that of poziotinib ([1]; EGFR exon 20 insertion mutant kinase, mutant not specified)"
C=CC(=O)N1CCC(C(F)(F)c2cc3c(Nc4ccc(Cl)c(Cl)c4F)ncnc3cc2OC)CC1 [Example 5],< 4,< 4,2.19,about 4 times,1.02,< 4,1.54,–
C=CC(=O)N1C[C@H]2C[C@H](Oc3cc4c(Nc5ccc(Cl)c(Cl)c5F)ncnc4cc3OCCOC)C[C@H]2C1 [Example 16],< 4,< 4,–,–,–,< 4,–,–
C=CC(=O)N1C2CCC1CC(C(=O)c1cc3c(Nc4ccc(Cl)c(Cl)c4F)ncnc3cc1OC)C2 (stereo not drawn) [Example 11],4 to 40,4 to 40,–,–,–,4 to 40,–,–
C=CC(=O)N1CCC(C(=O)c2cc3c(Nc4ccc(Cl)c(Cl)c4F)ncnc3cc2OC)CC1 [Example 6],4 to 40,4 to 40,16.2,–,–,–,4.51,–
C=CC(=O)N1CC(C(F)(F)c2cc3c(Nc4ccc(Cl)c(Cl)c4F)ncnc3cc2OC)C1 [Example 3],< 4,< 4,1.32,–,2.61,< 4,0.513,2-3 times
"C=CC(=O)N1CCC(Oc2cc3c(Nc4ccc(Cl)c(Cl)c4F)ncnc3cc2OC)CC1 [Poziotinib, reference compound]",–,–,–,–,4.79,4 to 40,–,–
C=CC(=O)N1CC2C(C1)C2Oc1cc2c(Nc3ccc(Cl)c(Cl)c3F)ncnc2cc1OC (stereo not drawn) [Example 10],< 4,< 4,–,–,–,–,–,–
COc1cc2ncnc(Nc3ccc(Cl)c(Cl)c3F)c2cc1N1CCCC1 [Example 2],< 4,< 4,3.03,–,–,–,1.65,–
C=CC(=O)N1CC(C(=O)c2cc3c(Nc4ccc(Cl)c(Cl)c4F)ncnc3cc2OC)C1 [Example 4],4 to 40,< 4,11.8,–,–,–,3.04,–

# Next, values leading:
IC50 ([1]; class symbols) [nM],IC50 ([2]; class symbols) [nM],IC50 [1] [nM],inhibitory activity on Her2 insertion mutant kinase relative to that of poziotinib [3],IC50 [3] [nM],IC50 ([3]; class symbols) [nM],IC50 [2] [nM],"activity relative to that of poziotinib ([1]; EGFR exon 20 insertion mutant kinase, mutant not specified)",SMILES
4 to 40,4 to 40,–,–,–,–,–,–,C=CC(=O)N1C2CC(Sc3cc4c(Nc5ccc(Cl)c(Cl)c5F)ncnc4cc3OC)CC1C2 (stereo not drawn) [Example 8]
4 to 40,< 4,–,–,–,< 4,–,–,C=CC(=O)N1C[C@H]2C[C@H](Oc3cc4c(Nc5ccc(Cl)c(Cl)c5F)ncnc4cc3OCCCN3CCOCC3)C[C@H]2C1 [Example 17]
4 to 40,< 4,–,–,–,< 4,–,–,C=CC(=O)N1CC2(CC(Oc3cc4c(Nc5ccc(Cl)c(Cl)c5F)ncnc4cc3OC)C2)C1 [Example 13]
4 to 40,4 to 40,–,–,–,4 to 40,–,–,C=CC(=O)N1CC2CC1CC2C(=O)c1cc2c(Nc3ccc(Cl)c(Cl)c3F)ncnc2cc1OC (stereo not drawn) [Example 9]
4 to 40,< 4,6.68,–,–,–,1.61,–,C=CC(=O)N1CC2CN(c3cc4c(Nc5ccc(Cl)c(Cl)c5F)ncnc4cc3OC)CC2C1 (stereo not drawn) [Example 1]
4 to 40,< 4,4.04,–,1.84,< 4,0.833,–,C=CC(=O)N1CC2CC(Oc3cc4c(Nc5ccc(Cl)c(Cl)c5F)ncnc4cc3OC)CC2C1 (stereo not drawn) [Example 7]
